From the supplement of paper PMC10307832

Tests used:
Test in all cases: relative viability (nuclei count vs DMSO), 5 days (fraction); higher = more cells survive
Dovitinib + OSI-027 = compound: CN1CCN(c2ccc3nc(-c4c(N)c5c(F)cccc5[nH]c4=O)[nH]c3c2)CC1 [Dovitinib] + COc1cccc2cc(-c3nc([C@H]4CC[C@H](C(=O)O)CC4)n4ncnc(N)c34)[nH]c12 [OSI-027] (partner 0.5 µM)
How it was run: (§1)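 After 5 days of treatment, lung cancer cells in 1536-well plates were fixed and stained in a single step (final 0.05% Triton X-100, 1% formaldehyde, 1 ug/ml Hoechst) and their nuclei counted on 4× images. Treatment had been applied by pin tool the day after seeding as one drug alone or as a fixed anchor-drug dose with five library-drug doses (not always all listed) in √10 steps. Relative viability is the nuclei count of treated wells divided by that of vehicle wells, and values are medians of duplicate plates.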

Dovitinib + Lapatinib = compound: CN1CCN(c2ccc3nc(-c4c(N)c5c(F)cccc5[nH]c4=O)[nH]c3c2)CC1 [Dovitinib] + CS(=O)(=O)CCNCc1ccc(-c2ccc3ncnc(Nc4ccc(OCc5cccc(F)c5)c(Cl)c4)c3c2)o1 [Lapatinib] (partner 2 µM)
How it was run: as §1

Dovitinib + Linsitinib = compound: CN1CCN(c2ccc3nc(-c4c(N)c5c(F)cccc5[nH]c4=O)[nH]c3c2)CC1 [Dovitinib] + C[C@]1(O)C[C@@H](c2nc(-c3ccc4ccc(-c5ccccc5)nc4c3)c3c(N)nccn32)C1 [Linsitinib] (partner 1 µM)
How it was run: as §1

Dovitinib + Alpelisib = compound: CN1CCN(c2ccc3nc(-c4c(N)c5c(F)cccc5[nH]c4=O)[nH]c3c2)CC1 [Dovitinib] + Cc1nc(NC(=O)N2CCC[C@H]2C(N)=O)sc1-c1ccnc(C(C)(C)C(F)(F)F)c1 [Alpelisib] (partner 2 µM)
How it was run: as §1

| Cell Line | relative viability (Dovitinib + OSI-027; first compound 0.02 µM) | relative viability (Dovitinib + OSI-027; first compound 0.06325 µM) | relative viability (Dovitinib + OSI-027; first compound 0.2 µM) | relative viability (Dovitinib + OSI-027; first compound 0.6325 µM) | relative viability (Dovitinib + OSI-027; first compound 2 µM) | relative viability (Dovitinib + Lapatinib; first compound 0.02 µM) | relative viability (Dovitinib + Lapatinib; first compound 0.06325 µM) | relative viability (Dovitinib + Lapatinib; first compound 0.6325 µM) | relative viability (Dovitinib + Lapatinib; first compound 2 µM) | relative viability (Dovitinib + Linsitinib; first compound 0.02 µM) | relative viability (Dovitinib + Linsitinib; first compound 0.06325 µM) | relative viability (Dovitinib + Linsitinib; first compound 0.6325 µM) | relative viability (Dovitinib + Linsitinib; first compound 2 µM) | relative viability (Dovitinib + Alpelisib; first compound 0.02 µM) | relative viability (Dovitinib + Alpelisib; first compound 0.06325 µM) | relative viability (Dovitinib + Alpelisib; first compound 0.6325 µM) | relative viability (Dovitinib + Alpelisib; first compound 2 µM) | relative viability (Dovitinib + Lapatinib; first compound 0.2 µM) | relative viability (Dovitinib + Linsitinib; first compound 0.2 µM) | relative viability (Dovitinib + Alpelisib; first compound 0.2 µM) |
| --- | --- | --- | --- | --- | --- | --- | --- | --- | --- | --- | --- | --- | --- | --- | --- | --- | --- | --- | --- | --- |
| 201T | 0.704 | 0.747 | 0.748 | 0.898 | 0.724 | 0.95 | 0.993 | 1.01 | 0.968 | 0.988 | 0.944 | 0.945 | 0.995 | 0.979 | 0.975 | 1.01 | 0.996 |  |  |  |
| A549 |  |  |  |  |  | 1 | 0.956 | 0.817 | 0.887 | 0.654 | 0.573 | 0.586 | 0.632 | 0.802 | 0.757 | 0.801 | 0.671 | 0.893 | 0.651 | 0.701 |
| A-427 | 0.524 | 0.432 | 0.455 | 0.452 | 0.399 | 1.02 | 0.952 | 0.975 | 1.05 | 1.05 | 1.07 | 1.09 | 1.08 | 0.979 | 1.03 | 0.938 | 1.03 | 1.01 | 1.14 | 1.07 |
| ABC-1 | 0.445 | 0.505 | 0.48 | 0.448 | 0.51 | 1.15 | 1.28 | 1.18 | 0.969 | 0.848 | 0.865 | 1.02 | 0.618 | 0.994 | 0.947 | 0.564 | 0.823 | 1.02 | 0.842 | 0.967 |
| BEN | 0.319 | 0.302 | 0.342 | 0.312 | 0.287 | 0.533 | 0.822 | 0.771 | 0.808 | 0.874 | 0.873 | 0.922 | 0.898 | 0.981 | 0.828 | 0.954 | 0.936 | 0.835 | 1.07 | 0.988 |
| CAL-12T | 0.839 | 0.768 | 0.913 | 0.569 | 0.742 | 0.709 | 0.501 | 0.618 | 0.986 | 0.839 | 0.894 | 0.784 | 0.82 | 1.16 | 1.06 | 1.37 | 1.15 | 0.713 | 0.756 | 1.18 |
| COR-L23 | 0.681 | 0.856 | 0.835 | 0.791 | 0.823 | 0.918 | 0.983 | 1.01 | 0.882 | 0.876 | 1.05 | 0.896 | 1.04 | 0.768 | 0.743 | 0.773 | 0.726 | 1.04 | 0.943 | 0.69 |
| COR-L 105 | 0.722 | 0.637 | 0.649 | 0.659 | 0.784 | 0.39 | 0.367 | 0.327 | 0.407 | 1.04 | 0.912 | 0.855 | 0.961 | 0.938 | 0.986 | 0.84 | 0.958 | 0.341 | 0.834 | 1.01 |
| Calu-6 |  |  |  |  |  | 0.99 | 1.04 | 1.08 | 1.09 | 0.947 | 0.955 | 0.93 | 0.887 | 0.943 | 0.97 | 0.925 | 1.01 | 1.11 | 0.935 | 0.872 |
| ChaGo-K-1 | 0.549 | 0.556 | 0.635 | 0.542 | 0.614 |  |  |  |  |  |  |  |  |  |  |  |  |  |  |  |
| EBC-1 |  |  |  |  |  | 0.25 | 0.228 | 0.194 | 0.216 | 0.855 | 0.861 | 0.884 | 0.912 | 0.951 | 0.781 | 0.73 | 0.708 | 0.222 | 0.85 | 0.925 |
| EKVX | 0.724 | 0.717 | 0.731 | 0.731 | 0.702 | 0.252 | 0.189 | 0.21 | 0.21 | 1.01 | 1.05 | 1.02 | 0.978 | 0.889 | 0.848 | 0.942 | 0.946 | 0.257 | 1 | 0.901 |
| EMC-BAC-2 | 0.484 | 0.27 | 0.409 | 0.381 | 0.461 | 0.886 | 0.839 | 0.807 | 0.923 | 0.799 | 0.799 | 0.797 | 0.843 | 0.784 | 0.772 | 0.687 | 0.736 | 0.898 | 0.825 | 0.701 |
| EPLC-272H | 0.258 | 0.336 | 0.3 | 0.28 | 0.241 | 0.992 | 0.939 | 1.1 | 1.23 | 1.17 | 1.16 | 1.11 | 1.16 | 0.9 | 0.815 | 0.946 | 0.888 | 0.94 | 1.2 | 0.97 |
| H3255 | 0.637 | 0.601 | 0.627 | 0.716 | 0.585 | 0.217 | 0.266 | 0.266 | 0.255 | 1 | 0.937 | 1.02 | 1.02 | 0.785 | 0.655 | 0.8 | 0.937 | 0.288 | 1.01 | 0.735 |
| HARA | 0.628 | 0.438 | 0.456 | 0.538 | 0.474 | 0.914 | 0.716 | 0.805 | 0.602 | 1 | 0.943 | 0.968 | 0.859 | 0.791 | 0.908 | 0.853 | 0.705 | 0.564 | 0.924 | 0.778 |
| HCC-15 | 0.658 | 0.68 | 0.741 | 0.656 | 0.711 | 0.853 | 0.857 | 0.874 | 0.845 | 0.952 | 0.831 | 0.879 | 0.941 | 0.916 | 0.868 | 0.848 | 0.939 | 0.91 | 0.938 | 0.915 |
| HCC-44 | 0.538 | 0.578 | 0.569 | 0.485 | 0.524 | 1.01 | 1.02 | 0.938 | 1.01 | 0.681 | 0.667 | 0.773 | 0.628 | 0.721 | 0.783 | 0.856 | 0.747 | 1.03 | 0.681 | 0.835 |
